For 7 compounds, IC50 results are on record in ChEMBL document CHEMBL6127105, “Immunosuppressive Breviane Spiroditerpenoids from Penicillium bialowiezense Isolated from a Medicinal Plant” (J Nat Prod, 2024).

Experiment [1] is described as follows: Immunosuppressive activity against LPS induced B-cells proliferation. Format: functional, cell-based. Conditions: B-cell.
Experiment [2] can be described thus: Immunosuppressive activity against ConA induced T-cells proliferation. In kind it is functional, cell-based. Conditions: T-cell.

Turning to `CC1=C[C@H](O)[C@@H]2[C@@]3(C)CC[C@H](O)C(C)(C)[C@@H]3CC[C@@]2(C)[C@]12Cc1c(c(C)c(C)oc1=O)O2`, the IC50 in experiment [1] was 4.6 µM; in experiment [2], 4.1 µM.
On to `CC1=CC[C@@H]2[C@@]3(C)C=CC(=O)C(C)(C)[C@@H]3CC[C@@]2(C)[C@]12Cc1c(c(C)c(C)oc1=O)O2`, for which the IC50 was found to be 6.7 µM in experiment [1] and 4.8 µM in experiment [2].
Taken in the same sequence, the figures for `CC1=CC[C@@H]2[C@@]3(C)CCC(=O)C(C)(C)[C@@H]3CC[C@@]2(C)[C@]12Cc1c(c(C)c(C)oc1=O)O2` were 17 µM and 17 µM.
The corresponding values for `CC1=C[C@H](O)[C@@H]2[C@@]3(C)C=CC(=O)C(C)(C)[C@@H]3CC[C@@]2(C)[C@]12Cc1c(c(C)c(C)oc1=O)O2` are 7.5 µM and 4.7 µM.
The corresponding values for `CC1=C[C@H](O)[C@@H]2[C@@]3(C)CCC(=O)C(C)(C)[C@@H]3CC[C@@]2(C)[C@]12Cc1c(c(C)c(C)oc1=O)O2` are 18 µM and 11 µM.
For the compound `CC1=C[C@H](O)[C@@H]2[C@@]3(C)[C@H](O)CC(=O)C(C)(C)[C@@H]3CC[C@@]2(C)[C@]12Cc1c(c(C)c(C)oc1=O)O2`, the figures for the IC50 in experiment [1] and in experiment [2] were 13 µM and 12 µM, respectively.
Taken in the same sequence, the figures for `CC1=C[C@H](O)[C@@H]2[C@@]3(C)[C@H](O)[C@@H](O)[C@H](O)C(C)(C)[C@@H]3CC[C@@]2(C)[C@]12Cc1c(c(C)c(C)oc1=O)O2` were 6.3 µM and 7.3 µM.

The IC50 is the midpoint of a concentration-inhibition curve. High values mean weaker potency in that assay, low ones greater potency in that assay.
